In this assay the target is T1, human 5-HT5A receptor (Homo sapiens, UniProt P47898).
T1 construct: expressed in transfected cells; membranes used
Kind of assay: Test on a human 5-HT5A receptor binding inhibition ([3H]5-CT). The conditions noted are these: membrane from HEK293 cells for forced expression of human 5-HT5A receptor; Ki calculated from IC50 and Kd of [3H]5-CT (4.95 nM). The procedure:
The ORF (open reading frame; protein coding region) of a human 5-HT5A receptor (Genbank AF498985) was cloned from a human hippocampus cDNA library, and then inserted into a pCR2.1 vector (Invitrogen), and Escherichia coli containing the plasmid was cultured in a large amount. Next, the full-length cDNA sequence of the human 5-HT5A receptor was analyzed, and recombined into a pcDNA3.1 vector (Invitrogen) as an expression vector and cultured in a large amount. HEK293 established cells (ATCC) derived from the human fetal kidney were seeded, the expression plasmid (1 μg) obtained above were added thereto with LIPOFECTAMINE 2000 (Invitrogen; 2 μl), the gene was transfected into HEK293 cells, and the expression cells were screened with a drug-resistant marker, Geneticin (G418 sulfate 500 μg/ml; Kanto Chemical Co., Inc.). Thus prepared recombinant cells which expressed the gene were cultured in a medium containing D-MEM (Dulbecco's modified eagle medium, Sigma), 10% FCS (Fetal calf serum: fetal bovine serum), 1% Pc./Sm (Penicillin/Streptomycin, Invitrogen), and 500 μg/ml G418 for 3 days. These experimental operations followed a manual for gene operation experiment and an instruction appended in a reagent, and the like, such as a known method (Sambrook, J. et al, Molecular Cloning-A Laboratory Manual”, Cold Spring Harabor laboratory, NY, 1989).
HEK293 cells for forced expressions of a human 5-HT5A receptor were cultured in a F500 plate, and scraped with a scraper. After centrifugation, the precipitate was collected, and an incubation buffer (50 mM Tris (HCl) (pH 7.4), 10 mM MgSO4, and 0.5 mM EDTA (ethylenediamine tetraacetic acid)) was added thereto. After homogenization, it was further centrifuged, and the incubation buffer was added to the precipitate, followed by thoroughly suspending. The operation was repeated, and protein concentration was measured, thereby completing preparation of the membrane.
A solution of the compound to be tested and 100 μM 5-CT (5-carboxamidetriptamine) in DMSO was added to a 96-well plate at 2 μl/well, suspended in an incubation buffer, and a membrane from HEK293 cells for forced expressions of a human 5-HT5A receptor prepared at 200 μg/ml was added at 100 μl/well. After incubation at room temperature for 15 minutes, a [^3H]5-CT solution (2 nM [^3H]5-CT, incubation buffer) was added thereto at 100 μl/well.
Separately, 100 μl of the solution was distributed into a liquid scintillation vial, and 2 ml of Aquasol II (registered trademark) was added thereto, followed by stirring. Then, radioactivity was measured by a liquid scintillation counter. It was incubated at 37° C. for 60 minutes. The reaction mixture was sucked into 96-well GF/C filter plate that had been pre-treated with 0.2% polyethyleneimine, and washed six times with an ice-cooled, 50 mM Tris (pH 7.5) buffer. The GF/C filter plate was dried.
Microscint TMPS (registered trademark) was added thereto at 40 μl/well. Radioactivity remaining on the GF/C filter plate was measured by a top counter.
The [^3H]5-CT binding inhibiting activity by the compound to be tested in each experiment was determined as an IC50 value with a radioactivity upon addition of DMSO alone being 0% inhibition, and a radioactivity upon addition of 1 μM 5-CT being 100% inhibition. Separately, Ki values were calculated from the Kd value of the [^3H]5-CT determined from Scatchard analysis, by the following equation.
Ki=IC50 (1+Concentraion of ligand added/Kd (4.95 nM))

T1 sequence (P47898 whole entry): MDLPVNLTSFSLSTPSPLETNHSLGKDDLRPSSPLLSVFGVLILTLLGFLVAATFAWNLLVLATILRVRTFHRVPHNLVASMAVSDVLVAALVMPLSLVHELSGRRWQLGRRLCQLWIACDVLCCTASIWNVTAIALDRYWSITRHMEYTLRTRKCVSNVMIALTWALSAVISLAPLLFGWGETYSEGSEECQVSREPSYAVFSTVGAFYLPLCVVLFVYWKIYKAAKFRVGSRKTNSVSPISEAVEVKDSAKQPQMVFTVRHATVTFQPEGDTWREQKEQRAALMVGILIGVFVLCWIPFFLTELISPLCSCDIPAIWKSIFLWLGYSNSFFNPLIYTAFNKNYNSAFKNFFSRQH

In general, Ki refers to a measure of affinity in units of concentration, obtained from inhibition or displacement. In the case of `NC(N)=NC(=O)c1ccc2cccc(-c3ccc(F)cc3)c2c1` [Example 88], the Ki is 0.3 to 3 nM. In the case of `Cc1ccsc1-c1cccc2ccc(C(=O)N=C(N)N)cc12` [Example 48] it was 0.3 to 3 nM; in that of `NC(N)=NC(=O)c1ccc2cccc(-c3cccnc3Cl)c2c1` [Example 19], 3 to 30 nM; in that of `Cc1ccc2ccc(C(=O)N=C(N)N)cc2c1-c1ccncc1F` [Example 114], 0.3 to 3 nM. With `Cc1ccc2ccc(C(=O)N=C(N)N)cc2c1-c1ccc(F)cc1` [Example 11] the figure was 0.3 to 3 nM.

Turning to `NC(N)=NC(=O)c1ccc2cccc(-c3ccccc3Cl)c2c1` [Example 7], the Ki was 0.3 to 3 nM.

In the case of `NC(N)=NC(=O)c1ccc2cccc(-c3ccncc3F)c2c1` [Example 25], the Ki is 0.3 to 3 nM. Regarding `NC(N)=NC(=O)c1ccc2ccc(Cl)c(-c3ccncc3)c2c1` [Example 147], the Ki was 0.3 to 3 nM. In the case of `COc1cc(-c2cccc3ccc(C(=O)N=C(N)N)cc23)c(Cl)cn1` [Example 63] it was 3 to 30 nM; in that of `NC(N)=NC(=O)c1ccc2cccc(-c3c(O)cccc3Cl)c2c1` [Example 116], 0.3 to 3 nM. In the case of `NC(N)=NC(=O)c1ccc2cccc(-c3cncs3)c2c1` [Example 182] it was 3 to 30 nM; in that of `NC(N)=NC(=O)c1ccc2cccc(-c3cccnc3)c2c1` [Example 21], 3 to 30 nM; in that of `COc1c(F)cc(F)c(-c2cccc3ccc(C(=O)N=C(N)N)cc23)c1F` [Example 127], 3 to 30 nM. With `NC(N)=NC(=O)c1ccc2cccc(-c3cc(Cl)ncc3F)c2c1` [Example 197] the figure was 0.3 to 3 nM; with `NC(N)=NC(=O)c1ccc2cccc(-c3ccccc3-c3ccccc3)c2c1` [Example 101], 30 to 300 nM. For `NC(N)=NC(=O)c1ccc2cccc(-c3ncc(F)cc3F)c2c1` [Example 190], the Ki is 0.3 to 3 nM. In the case of `COc1cccc(-c2cccc3ccc(C(=O)N=C(N)N)cc23)c1C#N` [Example 99] it was 3 to 30 nM; in that of `NC(N)=NC(=O)c1ccc2cccc(-c3ccsc3)c2c1` [Example 47], 0.3 to 3 nM; in that of `NC(N)=NC(=O)c1ccc2cccc(-c3cc(Cl)ccc3Cl)c2c1` [Example 76], 0.3 to 3 nM. On to `Cc1nc(C)c(-c2c(F)ccc3ccc(C(=O)N=C(N)N)cc23)s1` [Example 186], for which the Ki was 0.3 to 3 nM. In the case of `N#Cc1cccnc1-c1cccc2ccc(C(=O)N=C(N)N)cc12` [Example 181] it was 30 to 300 nM.

Turning to `NC(N)=NC(=O)c1ccc2cccc(-c3cc(Cl)ccc3F)c2c1` [Example 70], the Ki is 0.3 to 3 nM.

In the case of `COc1cc(F)c(-c2cccc3ccc(C(=O)N=C(N)N)cc23)c(F)c1` [Example 83], the Ki is 0.3 to 3 nM. With `NC(N)=NC(=O)c1ccc2cccc(-c3c(F)cccc3C3CC3)c2c1` [Example 191] the figure was 0.3 to 3 nM; with `Cc1nc(C2CC2)sc1-c1cccc2ccc(C(=O)N=C(N)N)cc12` [Example 163], 3 to 30 nM. Regarding `COc1ccccc1-c1c(Cl)ccc2ccc(C(=O)N=C(N)N)cc12` [Example 124], the inhibitory constant (Ki) was 0.3 to 3 nM.

Regarding `NC(N)=NC(=O)c1ccc2cccc(-c3ccc(Cl)cc3Cl)c2c1` [Example 61], the inhibition constant (Ki) was 0.3 to 3 nM. Turning to `NC(N)=NC(=O)c1ccc2cccc(-c3ccccc3OC(F)F)c2c1` [Example 93], the Ki was 3 to 30 nM. With `NC(N)=NC(=O)c1ccc2cccc(-c3cccc(Cl)c3O)c2c1` [Example 178], the Ki was 0.3 to 3 nM. With `N#Cc1ccc(F)c(-c2cccc3ccc(C(=O)N=C(N)N)cc23)c1` [Example 81] the figure was 0.3 to 3 nM; with `N#Cc1cc(F)ccc1-c1cccc2ccc(C(=O)N=C(N)N)cc12` [Example 16], 3 to 30 nM. In the case of `NC(N)=NC(=O)c1ccc2cccc(-c3ncc(F)cc3Cl)c2c1` [Example 169] it was 0.3 to 3 nM; in that of `COc1cccc(-c2cccc3ccc(C(=O)N=C(N)N)cc23)n1` [Example 159], 3 to 30 nM.

Regarding `NC(N)=NC(=O)c1ccc2cccc(-c3ccnc(C(F)(F)F)n3)c2c1` [Example 187], the Ki is 3 to 30 nM.

In the case of `NC(N)=NC(=O)c1ccc2cccc(-c3c(F)cncc3Cl)c2c1` [Example 148], the Ki is 0.3 to 3 nM. In the case of `Cc1ccncc1-c1cccc2ccc(C(=O)N=C(N)N)cc12` [Example 100] it was 3 to 30 nM; in that of `Cc1c(-c2cccc3ccc(C(=O)N=C(N)N)cc23)ncnc1C1CC1` [Example 193], 30 to 300 nM; in that of `NC(N)=NC(=O)c1ccc2cccc(-c3ccccc3O)c2c1` [Example 13], 0.3 to 3 nM. On to `NC(N)=NC(=O)c1ccc2cccc(-c3cccc4c3OCO4)c2c1` [Example 92], for which the Ki is 0.3 to 3 nM. On to `COc1nc(C)ccc1-c1c(Cl)ccc2ccc(C(=O)N=C(N)N)cc12` [Example 174], for which the Ki was 0.3 to 3 nM. In the case of `COc1ccc(-c2cccc3ccc(C(=O)N=C(N)N)cc23)cc1` [Example 90] it was 0.3 to 3 nM. In the case of `NC(N)=NC(=O)c1ccc2cccc(-c3cncc4ccccc34)c2c1` [Example 130] it was 3 to 30 nM; in that of `N#Cc1c(Cl)cccc1-c1cccc2ccc(C(=O)N=C(N)N)cc12` [Example 85], 0.3 to 3 nM.

With `N#Cc1cc(F)c(-c2cccc3ccc(C(=O)N=C(N)N)cc23)c(F)c1` [Example 155], the inhibitory constant (Ki) was 0.3 to 3 nM. In the case of `Cc1cc(-c2cccc3ccc(C(=O)N=C(N)N)cc23)cc(C)n1` [Example 166], the inhibition constant Ki was 3 to 30 nM. Take `CCOc1ncc(Cl)c(-c2cccc3ccc(C(=O)N=C(N)N)cc23)c1Cl` [Example 67]: the Ki was 0.3 to 3 nM. On to `NC(N)=NC(=O)c1ccc2cccc(-c3cccc(O)c3F)c2c1` [Example 106], for which the inhibition constant (Ki) was 0.3 to 3 nM. As for `COc1cc(F)ccc1-c1cccc2ccc(C(=O)N=C(N)N)cc12` [Example 4], the Ki is 0.3 to 3 nM. In the case of `COc1ccc(-c2cccc3ccc(C(=O)N=C(N)N)cc23)c(F)c1` [Example 82] it was 0.3 to 3 nM; in that of `COc1ccc(-c2cccc3ccc(C(=O)N=C(N)N)cc23)cn1` [Example 97], 3 to 30 nM. In the case of `NC(N)=NC(=O)c1ccc2cccc(-c3cccc4c3OC(F)(F)O4)c2c1` [Example 115] it was 3 to 30 nM; in that of `NC(N)=NC(=O)c1ccc2cccc(-c3c(F)cc(Cl)cc3F)c2c1` [Example 43], 0.3 to 3 nM. In the case of `NC(N)=NC(=O)c1ccc2cccc(-c3cccc4nonc34)c2c1` [Example 179] it was 3 to 30 nM. Regarding `COc1ccncc1-c1cccc2ccc(C(=O)N=C(N)N)cc12` [Example 98], the Ki is 30 to 300 nM. As to `NC(N)=NC(=O)c1ccc2cccc(-c3cccc(F)c3O)c2c1` [Example 105], the Ki is 0.3 to 3 nM.

`NC(N)=NC(=O)c1ccc2cccc(-c3cccc(Cl)c3F)c2c1` [Example 69]: the Ki was 0.3 to 3 nM. In the case of `NC(N)=NC(=O)c1ccc2ccc(Cl)c(-c3ccncc3Cl)c2c1` [Example 157] it was 0.3 to 3 nM. In the case of `NC(N)=NC(=O)c1ccc2cccc(-c3ccccc3C3CC3)c2c1` [Example 138] it was 0.3 to 3 nM. As for `N#Cc1ccc(-c2cccc3ccc(C(=O)N=C(N)N)cc23)nc1` [Example 184], the Ki is 3 to 30 nM. With `N#Cc1ccc(-c2cccc3ccc(C(=O)N=C(N)N)cc23)cc1` [Example 2] the figure was 0.3 to 3 nM. As to `NC(N)=NC(=O)c1ccc2cccc(-c3c(F)cccc3OC(F)F)c2c1` [Example 107], the inhibition constant (Ki) was 0.3 to 3 nM. With `N#Cc1cccc(-c2cccc3ccc(C(=O)N=C(N)N)cc23)c1F` [Example 80] the figure was 0.3 to 3 nM; with `NC(N)=NC(=O)c1ccc2cccc(-c3ccccc3F)c2c1` [Example 6], 0.3 to 3 nM; with `NC(N)=NC(=O)c1ccc2cccc(-c3cccs3)c2c1` [Example 46], 0.3 to 3 nM. Turning to `NC(N)=NC(=O)c1ccc2cccc(-c3ncc(Cl)cc3Cl)c2c1` [Example 151], the Ki was 0.3 to 3 nM.
